Measurements published in ChEMBL document CHEMBL5634130, “Exploring the structural-activity relationship of hexahydropyrazino[1,2-d]pyrido[3,2-b][1,4]oxazine derivatives as potent and orally-bioavailable PARP7 inhibitors” (Eur J Med Chem, 2023).
≈ marks a conversion by molar mass, not a printed value.

How the values were obtained:
[1] = Clearance in fasted ICR mouse at 2 mg/kg, iv measured for 24 hrs by LC-MS analysis; type: ADME, organism-based; settings: in vivo
[2] = Half life in fasted ICR mouse at 2 mg/kg, iv measured for 24 hrs by LC-MS analysis; type: ADME, organism-based; settings: in vivo
[3] = AUC in fasted ICR mouse at 2 mg/kg, iv measured for 24 hrs by LC-MS analysis; type: ADME, organism-based; settings: in vivo
[4] = Volume of distribution at steady state in fasted ICR mouse at 2 mg/kg, iv measured for 24 hrs by LC-MS analysis; type: ADME, organism-based; settings: in vivo, read-out: Vdss
[5] = Tmax in fasted ICR mouse at 10 mg/kg, po measured for 24 hrs by LC-MS analysis; type: ADME, organism-based; settings: in vivo
[6] = Half life in fasted ICR mouse at 10 mg/kg, po measured for 24 hrs by LC-MS analysis; type: ADME, organism-based; settings: in vivo
[7] = Cmax in fasted ICR mouse at 10 mg/kg, po measured for 24 hrs by LC-MS analysis; type: ADME, organism-based; settings: in vivo
[8] = AUC in fasted ICR mouse at 10 mg/kg, po measured for 24 hrs by LC-MS analysis; type: ADME, organism-based; settings: in vivo
[9] = Oral bioavailability in fasted ICR mouse at 10 mg/kg measured for 24 hrs by LC-MS analysis; type: ADME, organism-based; settings: in vivo
NCI-H1373 = assay: Antitumor activity against human NCI-H1373 cells xenografted in […] SCID mouse model assessed as tumor growth inhibition at 30 mg/kg, po administered everyday measured after 21 days relative to control; type: functional; settings: NCI-H1373, 504 h, time 21 day, read-out: TGI
[10] = Toxicity in […] SCID mouse model xenografted with human NCI-H1373 cells assessed as animal death at 30 mg/kg, po measured for 21 days; type: organism-based; settings: in vivo, 504 h, time 21 day
[11] = Toxicity in […] SCID mouse model xenografted with human NCI-H1373 cells assessed as body weight loss at 30 mg/kg, po measured for 21 days; type: organism-based; settings: in vivo, 504 h, time 21 day
[12] = Half life in fasted Beagle dog at 2 mg/kg, iv measured for 24 hrs by LC-MS analysis; type: ADME, organism-based, Canis lupus familiaris; settings: in vivo
[13] = AUC in fasted Beagle dog at 2 mg/kg, iv measured for 24 hrs by LC-MS analysis; type: ADME, organism-based, Canis lupus familiaris; settings: in vivo, iv, 2 mg/kg, 24 h
[14] = Volume of distribution at steady state in fasted Beagle dog at 2 mg/kg, iv measured for 24 hrs by LC-MS analysis; type: ADME, organism-based, Canis lupus familiaris; settings: in vivo, read-out: Vdss
[15] = Tmax in fasted Beagle dog at 10 mg/kg, po measured for 24 hrs by LC-MS analysis; type: ADME, organism-based, Canis lupus familiaris; settings: in vivo
[16] = Half life in fasted Beagle dog at 10 mg/kg, po measured for 24 hrs by LC-MS analysis; type: ADME, organism-based, Canis lupus familiaris; settings: in vivo
[17] = Cmax in fasted Beagle dog at 10 mg/kg, po measured for 24 hrs by LC-MS analysis; type: ADME, organism-based, Canis lupus familiaris; settings: in vivo
[18] = AUC in fasted Beagle dog at 10 mg/kg, po measured for 24 hrs by LC-MS analysis; type: ADME, organism-based, Canis lupus familiaris; settings: in vivo
[19] = Oral bioavailability in fasted Beagle dog at 10 mg/kg measured for 24 hrs by LC-MS analysis; type: ADME, organism-based, Canis lupus familiaris; settings: in vivo
[20] = Kinetic solubility of compound at pH 2; type: physicochemical; settings: buffer, read-out: Kinetic_solubility
[21] = Kinetic solubility of compound at pH 6.5; type: physicochemical; settings: buffer, read-out: Kinetic_solubility
[22] = Kinetic solubility of compound at pH 7.4; type: physicochemical; settings: buffer, read-out: Kinetic_solubility
[23] = Thermodynamic solubility of compound at pH 2; type: physicochemical; settings: buffer, read-out: Therm_solubility
[24] = Thermodynamic solubility of compound at pH 6.5; type: physicochemical; settings: buffer, read-out: Therm_solubility
[25] = Thermodynamic solubility of compound at pH 7.4; type: physicochemical; settings: buffer, read-out: Therm_solubility
[26] = Apparent permeability across apical to basolateral side in MDCKII-MDR1 cells incubated for 2 hrs by LC-MS analysis; type: ADME, cell-based, Canis lupus familiaris; settings: dog, MDCK-MDR1
[27] = Apparent permeability across basolateral to apical side in MDCKII-MDR1 cells incubated for 2 hrs by LC-MS analysis; type: ADME, cell-based, Canis lupus familiaris; settings: dog, MDCK-MDR1
[28] = Passive permeability in MDCKII-MDR1 cells incubated for 2 hrs by LC-MS analysis; type: ADME, cell-based, Canis lupus familiaris; settings: dog, MDCK-MDR1, read-out: permeability
[29] = Plasma protein binding in human at 2 uM incubated for 1 hr by LC/MS analysis; type: ADME, cell-free; settings: read-out: PPB (converted)
[30] = Plasma protein binding in monkey at 2 uM incubated for 1 hr by LC/MS analysis; type: ADME, cell-free, Macaca mulatta; settings: rhesus monkey, read-out: PPB (converted)
[31] = Plasma protein binding in dog at 2 uM incubated for 1 hr by LC/MS analysis; type: ADME, cell-free, Canis lupus familiaris; settings: read-out: PPB (converted)
[32] = Plasma protein binding in rat at 2 uM incubated for 1 hr by LC/MS analysis; type: ADME, cell-free; settings: read-out: PPB (converted)
[33] = Plasma protein binding in mouse at 2 uM incubated for 1 hr by LC/MS analysis; type: ADME, cell-free; settings: read-out: PPB (converted)
[34] = Metabolic stability in human liver microsomes assessed as intrinsic clearance preincubated for 5 mins followed by NADPH addition measured for 1 hr by LC-MS analysis; type: ADME, Microsome; settings: time 65 min, read-out: CLH
[35] = Metabolic stability in monkey liver microsomes assessed as intrinsic clearance preincubated for 5 mins followed by NADPH addition measured for 1 hr by LC-MS analysis; type: ADME, Macaca mulatta, Microsome; settings: rhesus monkey, time 65 min, read-out: CLH
[36] = Metabolic stability in dog liver microsomes assessed as intrinsic clearance preincubated for 5 mins followed by NADPH addition measured for 1 hr by LC-MS analysis; type: ADME, Canis lupus familiaris, Microsome; settings: time 65 min, read-out: CLH
[37] = Metabolic stability in rat liver microsomes assessed as intrinsic clearance preincubated for 5 mins followed by NADPH addition measured for 1 hr by LC-MS analysis; type: ADME, Microsome; settings: time 65 min, read-out: CLH
[38] = Metabolic stability in mouse liver microsomes assessed as intrinsic clearance preincubated for 5 mins followed by NADPH addition measured for 1 hr by LC-MS analysis; type: ADME, Microsome; settings: time 65 min, read-out: CLH
Cytochrome P450 1A2 = biological target: T1, Cytochrome P450 1A2 (Homo sapiens, UniProt P05177); assay: Inhibition of CYP1A2 in human liver microsomes using phenacetin as substrate preincubated for 10 mins followed by substrate addition measured for 30 mins by LC-MS analysis; type: ADME, Microsome
T1 sequence (P05177 whole entry): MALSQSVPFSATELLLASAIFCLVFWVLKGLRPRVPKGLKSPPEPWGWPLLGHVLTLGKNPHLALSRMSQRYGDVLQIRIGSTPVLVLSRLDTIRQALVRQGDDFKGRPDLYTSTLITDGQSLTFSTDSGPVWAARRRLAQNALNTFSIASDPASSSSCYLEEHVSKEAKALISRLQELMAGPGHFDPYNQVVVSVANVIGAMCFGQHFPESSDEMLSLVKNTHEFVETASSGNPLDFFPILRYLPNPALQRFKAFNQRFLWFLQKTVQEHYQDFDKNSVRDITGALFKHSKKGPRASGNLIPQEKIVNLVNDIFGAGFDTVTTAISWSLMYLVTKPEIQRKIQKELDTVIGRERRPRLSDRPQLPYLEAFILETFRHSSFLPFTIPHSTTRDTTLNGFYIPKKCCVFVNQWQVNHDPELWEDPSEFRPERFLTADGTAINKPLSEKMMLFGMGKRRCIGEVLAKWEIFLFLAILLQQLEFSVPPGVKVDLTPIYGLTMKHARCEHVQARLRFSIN

Cytochrome P450 2C9 = Cytochrome P450 2C9 (Homo sapiens, UniProt P11712); assay: Inhibition of CYP2C9 in human liver microsomes using diclofenac as substrate preincubated for 10 mins followed by substrate addition measured for 30 mins by LC-MS analysis; type: ADME, Microsome
Cytochrome P450 2C19 = Cytochrome P450 2C19 (Homo sapiens, UniProt P33261); assay: Inhibition of CYP2C19 in human liver microsomes using mephenytoin as substrate preincubated for 10 mins followed by substrate addition measured for 30 mins by LC-MS analysis; type: ADME, Microsome
Cytochrome P450 2D6 = Cytochrome P450 2D6 (Homo sapiens, UniProt P10635); assay: Inhibition of CYP2D6 in human liver microsomes using dextromethorphan as substrate preincubated for 10 mins followed by substrate addition measured for 30 mins by LC-MS analysis; type: ADME, Microsome
Cytochrome P450 3A4 = Cytochrome P450 3A4 (Homo sapiens, UniProt P08684); assay: Inhibition of CYP3A4 in human liver microsomes using midazolam as substrate preincubated for 10 mins followed by substrate addition measured for 30 mins by LC-MS analysis; type: ADME, Microsome
Chain of Cytochrome P450 3A4 (P08684 whole entry): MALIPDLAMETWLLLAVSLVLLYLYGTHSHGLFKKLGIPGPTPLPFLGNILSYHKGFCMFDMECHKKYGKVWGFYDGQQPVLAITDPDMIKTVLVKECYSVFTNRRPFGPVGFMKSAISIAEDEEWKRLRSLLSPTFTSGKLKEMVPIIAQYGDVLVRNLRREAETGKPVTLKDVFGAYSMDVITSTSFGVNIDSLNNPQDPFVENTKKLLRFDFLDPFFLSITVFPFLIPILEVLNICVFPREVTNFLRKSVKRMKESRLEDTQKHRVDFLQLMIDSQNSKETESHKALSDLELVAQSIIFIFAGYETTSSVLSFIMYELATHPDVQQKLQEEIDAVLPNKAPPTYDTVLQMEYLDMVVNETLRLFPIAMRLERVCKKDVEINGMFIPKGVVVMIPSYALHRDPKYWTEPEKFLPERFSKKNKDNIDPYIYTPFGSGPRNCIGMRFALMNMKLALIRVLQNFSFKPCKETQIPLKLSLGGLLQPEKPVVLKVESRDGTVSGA

Chain of Cytochrome P450 2C9 (P11712 whole entry): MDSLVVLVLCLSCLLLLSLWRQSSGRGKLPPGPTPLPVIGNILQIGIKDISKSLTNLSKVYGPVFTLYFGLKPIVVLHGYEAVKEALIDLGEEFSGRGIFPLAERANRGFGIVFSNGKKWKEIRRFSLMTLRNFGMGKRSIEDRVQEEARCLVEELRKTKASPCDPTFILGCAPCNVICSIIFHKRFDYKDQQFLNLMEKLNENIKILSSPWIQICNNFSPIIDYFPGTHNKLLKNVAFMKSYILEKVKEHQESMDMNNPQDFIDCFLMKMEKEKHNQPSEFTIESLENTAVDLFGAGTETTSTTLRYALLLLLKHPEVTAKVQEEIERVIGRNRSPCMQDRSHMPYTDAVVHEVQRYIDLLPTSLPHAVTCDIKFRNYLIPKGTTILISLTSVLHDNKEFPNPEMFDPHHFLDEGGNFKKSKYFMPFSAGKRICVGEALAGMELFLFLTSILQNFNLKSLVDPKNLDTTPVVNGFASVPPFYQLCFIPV
Chain of Cytochrome P450 2D6 (P10635 whole entry): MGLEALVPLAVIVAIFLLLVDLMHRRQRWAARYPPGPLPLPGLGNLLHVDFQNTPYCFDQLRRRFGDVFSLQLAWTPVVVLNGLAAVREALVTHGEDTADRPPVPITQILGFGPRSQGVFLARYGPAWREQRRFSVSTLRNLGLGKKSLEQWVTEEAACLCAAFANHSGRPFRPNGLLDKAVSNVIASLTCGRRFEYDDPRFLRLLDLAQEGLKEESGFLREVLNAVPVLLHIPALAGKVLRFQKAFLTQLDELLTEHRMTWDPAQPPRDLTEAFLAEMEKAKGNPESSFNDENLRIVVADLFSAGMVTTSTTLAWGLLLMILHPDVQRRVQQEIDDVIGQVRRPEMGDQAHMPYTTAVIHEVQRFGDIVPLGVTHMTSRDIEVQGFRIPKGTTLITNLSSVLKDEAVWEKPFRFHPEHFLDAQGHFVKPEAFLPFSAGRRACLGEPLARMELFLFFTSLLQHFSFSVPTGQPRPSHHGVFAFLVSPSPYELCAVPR
Chain of Cytochrome P450 2C19 (P33261 whole entry): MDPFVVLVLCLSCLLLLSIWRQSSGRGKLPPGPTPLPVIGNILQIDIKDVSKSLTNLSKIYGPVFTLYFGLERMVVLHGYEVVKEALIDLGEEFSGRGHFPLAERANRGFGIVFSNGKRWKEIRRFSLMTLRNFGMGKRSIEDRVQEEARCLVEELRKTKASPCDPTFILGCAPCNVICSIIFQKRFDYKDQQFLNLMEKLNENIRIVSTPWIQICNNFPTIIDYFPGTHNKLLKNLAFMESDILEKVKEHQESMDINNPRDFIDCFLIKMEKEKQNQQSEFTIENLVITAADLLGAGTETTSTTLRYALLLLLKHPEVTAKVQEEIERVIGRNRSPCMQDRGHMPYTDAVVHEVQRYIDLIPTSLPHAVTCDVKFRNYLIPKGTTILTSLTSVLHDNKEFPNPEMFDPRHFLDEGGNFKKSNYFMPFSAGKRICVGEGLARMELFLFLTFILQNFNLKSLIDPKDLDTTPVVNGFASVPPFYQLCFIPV

C[C@@H](COCCC(=O)N1CCN(c2ncc(C(F)(F)F)cn2)CC1)Nc1cn[nH]c(=O)c1C(F)(F)F [ATAMPARIB]
clearance [1]: 72.6 mL/min/kg | half-life [2]: 12 min | AUC at 24 h [3]: 470 ng·h/mL | Vd [4]: 0.714 L/kg | Tmax [5]: 15 min | t1/2 [6]: 2.7 h | Cmax [7]: 0.995 µg/mL | AUC [8]: 617 ng·h/mL | bioavailability [9]: 26.2% | inhibition in vivo at 30 mg/kg (NCI-H1373): 62.7% | Activity [10]: Non-Toxic | Activity [11]: Non-Toxic | half-life [12]: 60 min | AUC [13]: 4694 ng·h/mL | Vd [14]: 1.7 L/kg | Tmax [15]: 1.33 h | t1/2 [16]: 2.5 h | Cmax [17]: 1.8 µg/mL | AUC [18]: 5508 ng·h/mL | bioavailability [19]: 23.4% | solubility kinetic [20]: 158 µM (≈ 82.7 µg/mL) | solubility kinetic [21]: 151 µM (≈ 79 µg/mL) | solubility kinetic [22]: 158 µM (≈ 82.7 µg/mL) | solubility thermodynamic [23]: 68.9 µg/mL (≈ 132 µM) | solubility thermodynamic [24]: 54.6 µg/mL (≈ 104 µM) | solubility thermodynamic [25]: 52.8 µg/mL (≈ 101 µM) | Papp A→B at 2 h [26]: 0.28 ×10⁻⁶ cm/s | Papp B→A at 2 h [27]: 3.78 ×10⁻⁶ cm/s | Papp at 2 h [28]: 1.03 ×10⁻⁶ cm/s | fraction unbound at 1 h, 2 µM [29]: 0.194 | fraction unbound at 1 h, 2 µM [30]: 0.347 | fraction unbound at 1 h, 2 µM [31]: 0.131 | fraction unbound at 1 h, 2 µM [32]: 0.233 | fraction unbound at 1 h, 2 µM [33]: 0.123 | CLint scaled [34]: 23.2 mL/min/kg | CLint scaled [35]: 94.8 mL/min/kg | CLint scaled [36]: 17.1 mL/min/kg | CLint scaled [37]: 110 mL/min/kg | CLint scaled [38]: 345 mL/min/kg | IC50 (Cytochrome P450 1A2): > 30 µM | IC50 (Cytochrome P450 2C9): 3.13 µM | IC50 (Cytochrome P450 2C19): > 30 µM | IC50 (Cytochrome P450 2D6): > 30 µM | IC50 (Cytochrome P450 3A4): > 30 µM
